Values after ≈ are worked out from the molar mass of the structure shown.
Experiments:
[1] = Lipophilicity, logD of compound at pH 7.5 by RP-HPLC analysis; type: physicochemical; details: buffer
[2] = Thermodynamic solubility of compound at pH 6.5; type: physicochemical; details: buffer; for solubility thermodynamic: read-out: Therm_solubility
[3] = Oral bioavailability in Wistar rat at 2 mg/kg; type: ADME, organism-based; details: in vivo
[4] = Volume of distribution at steady state in Wistar rat at 0.5 mg/kg, iv; type: ADME, organism-based; details: in vivo, read-out: Vdss
[5] = AUC in Wistar rat at 0.5 mg/kg, iv; type: ADME, organism-based; details: in vivo
[6] = Apparent permeability across apical to basolateral side in human Caco2 cells at 2 uM after 2 hrs by LC/MS-MS analysis; type: ADME, cell-based; details: Caco-2
[7] = Volume of distribution at steady state in Wistar rat at 1 mg/kg, iv; type: ADME, organism-based; details: in vivo, read-out: Vdss
[8] = AUC in Wistar rat at 1 mg/kg, iv; type: ADME, organism-based; details: in vivo
[9] = Unbound drug level in plasma of CFA induced C57BL/6N mouse at […], po after 1 hr; type: ADME, organism-based; details: in vivo
[10] = Unbound drug level in plasma of CFA induced C57BL/6N mouse at 25 mg/kg, po after 1 hr; type: ADME, organism-based; details: in vivo
[11] = Unbound drug level in plasma of CFA induced C57BL/6N mouse at 50 mg/kg, po after 1 hr; type: ADME, organism-based; details: in vivo
[12] = Unbound drug level in plasma of CFA induced C57BL/6N mouse at 50 mg/kg, po after 80 mins; type: ADME, organism-based; details: in vivo

Structure (SMILES)	logD [1]	solubility thermodynamic [2] [µg/mL]	bioavailability [3] [%]	Papp A→B at 2 h, 2 µM [6] [×10⁻⁶ cm/s]	further results
NS(=O)(=O)c1cc(NC(=O)Cc2ccccc2C(F)(F)F)ccc1Oc1cccc(Cl)c1	3.3	–	–	–	–
NS(=O)(=O)c1cc(NC(=O)Cc2c(F)cccc2Cl)ccc1Oc1cccc(Cl)c1	–	0.7 (≈ 1.49 µM)	–	–	–
NS(=O)(=O)c1cc(NC(=O)Cc2ccccc2Cl)ccc1Oc1ccc(-c2nccs2)cc1	–	1 (≈ 2 µM)	–	–	–
NS(=O)(=O)c1cc(NC(=O)Cc2ccccc2Cl)ccc1OCc1ccccc1	–	–	–	–	Therm_solubility [2]: Insoluble
NS(=O)(=O)c1cc(NC(=O)Cc2ccccc2)ccc1Oc1cccc(Cl)c1 [BAY-1797]	2.8	16 (≈ 38.4 µM)	43	13.2	Vd [7]: 2.77 L/kg; AUC [8]: 1.06 kg·h/L; Cp(f) [9]: 186 nM; Cp(f) [10]: 374 nM; Cp(f) [11]: 672 nM; Cp(f) [12]: 548 nM

The next lines start with results.

logD [1]	solubility thermodynamic [2] [µg/mL]	bioavailability [3] [%]	Papp A→B at 2 h, 2 µM [6] [×10⁻⁶ cm/s]	Structure (SMILES)	further results
2.2	21 (≈ 47.8 µM)	21	5.3	NS(=O)(=O)c1cc(NC(=O)Cc2ccccc2Cl)ccc1OCC1CCOCC1	Vd [4]: 1.23 L/kg; AUC [5]: 0.37 kg·h/L
3	7 (≈ 15.5 µM)	–	–	NS(=O)(=O)c1cc(NC(=O)Cc2ccccc2Cl)ccc1Oc1cccc(Cl)c1	–
2.2	24 (≈ 52.5 µM)	44	4.3	NS(=O)(=O)c1cc(NC(=O)Cc2cc(F)ccc2Cl)ccc1OCC1CCOCC1	Vd [4]: 0.82 L/kg; AUC [5]: 1.11 kg·h/L

From ChEMBL document CHEMBL4321858 (J Med Chem, 2019)
